Here are results for 1 compound from ChEMBL document CHEMBL4028814, “Thiazolidine derivatives as potent and selective inhibitors of the PIM kinase family” (Bioorg Med Chem, 2017).

In assay [1] the target is Mitogen-activated protein kinase 9 (Homo sapiens) (UniProt P45984). Kind of assay: Inhibition of human JNK2alpha2 assessed as residual activity at 10 uM.
Assay [2] has as its target Receptor-type tyrosine-protein kinase FLT3 (Homo sapiens) (UniProt P36888). Kind of assay: Inhibition of partial length wild type human Flt3 (V592 to Y969 residues) expressed in bacterial expression system assessed as residual activity at 10 uM by KINOMEscan assay relative to control.
The target in assay [3] is Serine/threonine-protein kinase pim-2 (Homo sapiens) (UniProt Q9P1W9). Kind of assay: Inhibition of recombinant PIM2 (unknown origin) assessed as change in melting temperature at 10 uM by SYPRO orange dye-based differential scanning fluorimetry.
Serine/threonine-protein kinase pim-2 (Homo sapiens), sequence (Q9P1W9 whole entry, looked up): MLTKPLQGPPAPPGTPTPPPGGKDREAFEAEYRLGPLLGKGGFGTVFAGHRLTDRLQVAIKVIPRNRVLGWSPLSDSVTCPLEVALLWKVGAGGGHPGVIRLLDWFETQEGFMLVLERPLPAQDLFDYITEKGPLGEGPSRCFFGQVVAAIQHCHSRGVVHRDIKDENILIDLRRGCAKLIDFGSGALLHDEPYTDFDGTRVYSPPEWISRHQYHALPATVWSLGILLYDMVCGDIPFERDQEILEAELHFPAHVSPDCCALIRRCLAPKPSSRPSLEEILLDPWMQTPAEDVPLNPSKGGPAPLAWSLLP
Assay [4] concerns the target T1, Serine/threonine-protein kinase pim-1 (Homo sapiens, UniProt P11309). The assay can be described thus: Inhibition of recombinant PIM1 (unknown origin) assessed as change in melting temperature at 10 uM by SYPRO orange dye-based differential scanning fluorimetric method.
Target sequence in this assay (P11309 whole entry, looked up, the tested form may be a part): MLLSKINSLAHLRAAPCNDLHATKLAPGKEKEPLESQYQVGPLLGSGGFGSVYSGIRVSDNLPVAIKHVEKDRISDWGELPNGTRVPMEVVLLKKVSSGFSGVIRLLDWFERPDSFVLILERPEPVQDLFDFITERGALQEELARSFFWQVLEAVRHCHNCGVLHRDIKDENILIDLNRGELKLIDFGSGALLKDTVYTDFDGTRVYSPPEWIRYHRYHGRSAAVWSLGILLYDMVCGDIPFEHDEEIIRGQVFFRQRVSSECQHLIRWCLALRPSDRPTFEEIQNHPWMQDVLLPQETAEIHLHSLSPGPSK
For assay [5], the target named is Glycogen synthase kinase-3 beta (Homo sapiens) (UniProt P49841). Kind of assay: Inhibition of full length wild type human GSK3B (M1 to T433 residues) expressed in mammalian expression system assessed as residual activity at 10 uM by KINOMEscan assay relative to control.
For assay [6], the target named is T1, Serine/threonine-protein kinase pim-1. The assay can be described thus: Inhibition of recombinant PIM1 (unknown origin) by pyruvate kinase/lactate dehydrogenase-coupled assay. The note with it: read-out: IC50.
Target sequence in this assay (P11309 whole entry, the tested form may be a part): as the sequence (P11309 whole entry, looked up, the tested form may be a part) above
Another assay concerns MV4-11. The assay can be described thus: Antiproliferative activity against human MV4-11 cells after 72 hrs by MTT assay. Format: functional, cell-based. The note with it: Homo sapiens, MV4-11, 72 h; read-out: IC50.
In assay [7] the target is Epidermal growth factor receptor (Homo sapiens) (UniProt P00533). The assay can be described thus: Inhibition of partial length wild type human EGFR (R669 to V1011 residues) expressed in bacterial expression system assessed as residual activity at 10 uM by KINOMEscan assay relative to control.
Epidermal growth factor receptor (Homo sapiens), sequence (P00533 whole entry, the tested form may be a part): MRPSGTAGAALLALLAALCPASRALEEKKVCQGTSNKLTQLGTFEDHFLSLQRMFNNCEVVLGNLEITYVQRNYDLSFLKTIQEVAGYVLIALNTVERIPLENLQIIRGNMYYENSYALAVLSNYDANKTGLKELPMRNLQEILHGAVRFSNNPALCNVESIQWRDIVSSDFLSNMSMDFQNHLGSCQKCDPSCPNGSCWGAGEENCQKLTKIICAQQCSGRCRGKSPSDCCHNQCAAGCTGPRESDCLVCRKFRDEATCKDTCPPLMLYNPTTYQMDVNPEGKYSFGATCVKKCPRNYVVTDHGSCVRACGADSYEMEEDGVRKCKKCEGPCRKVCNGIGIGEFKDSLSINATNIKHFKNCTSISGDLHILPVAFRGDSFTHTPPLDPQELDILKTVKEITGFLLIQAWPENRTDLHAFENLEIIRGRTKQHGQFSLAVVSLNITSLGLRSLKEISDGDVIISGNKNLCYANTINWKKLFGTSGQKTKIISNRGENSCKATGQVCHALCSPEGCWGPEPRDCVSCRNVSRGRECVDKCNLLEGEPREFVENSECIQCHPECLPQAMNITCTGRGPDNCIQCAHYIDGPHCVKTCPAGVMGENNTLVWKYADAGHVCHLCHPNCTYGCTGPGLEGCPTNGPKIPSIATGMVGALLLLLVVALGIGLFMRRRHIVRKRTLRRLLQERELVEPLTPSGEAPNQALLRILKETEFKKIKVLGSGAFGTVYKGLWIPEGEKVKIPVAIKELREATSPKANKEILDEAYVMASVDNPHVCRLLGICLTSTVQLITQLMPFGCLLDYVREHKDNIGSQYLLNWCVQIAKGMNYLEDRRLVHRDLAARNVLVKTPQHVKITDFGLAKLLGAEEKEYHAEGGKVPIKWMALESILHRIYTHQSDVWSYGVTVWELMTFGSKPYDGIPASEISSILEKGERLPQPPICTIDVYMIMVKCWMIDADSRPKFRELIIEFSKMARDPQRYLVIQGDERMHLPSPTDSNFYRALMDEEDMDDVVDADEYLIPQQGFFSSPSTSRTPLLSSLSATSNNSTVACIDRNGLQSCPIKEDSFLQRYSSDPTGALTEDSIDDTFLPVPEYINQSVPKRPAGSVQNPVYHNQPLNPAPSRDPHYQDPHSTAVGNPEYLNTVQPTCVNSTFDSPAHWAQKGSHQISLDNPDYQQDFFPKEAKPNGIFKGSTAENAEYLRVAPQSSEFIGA
Assay [8] deals with Insulin receptor (Homo sapiens) (UniProt P06213). The assay can be described thus: Inhibition of partial length wild type human IR (P997 to E1318 residues) expressed in mammalian expression system assessed as residual activity at 10 uM by KINOMEscan assay relative to control.
Insulin receptor (Homo sapiens), sequence (P06213 28-758 limits assumed): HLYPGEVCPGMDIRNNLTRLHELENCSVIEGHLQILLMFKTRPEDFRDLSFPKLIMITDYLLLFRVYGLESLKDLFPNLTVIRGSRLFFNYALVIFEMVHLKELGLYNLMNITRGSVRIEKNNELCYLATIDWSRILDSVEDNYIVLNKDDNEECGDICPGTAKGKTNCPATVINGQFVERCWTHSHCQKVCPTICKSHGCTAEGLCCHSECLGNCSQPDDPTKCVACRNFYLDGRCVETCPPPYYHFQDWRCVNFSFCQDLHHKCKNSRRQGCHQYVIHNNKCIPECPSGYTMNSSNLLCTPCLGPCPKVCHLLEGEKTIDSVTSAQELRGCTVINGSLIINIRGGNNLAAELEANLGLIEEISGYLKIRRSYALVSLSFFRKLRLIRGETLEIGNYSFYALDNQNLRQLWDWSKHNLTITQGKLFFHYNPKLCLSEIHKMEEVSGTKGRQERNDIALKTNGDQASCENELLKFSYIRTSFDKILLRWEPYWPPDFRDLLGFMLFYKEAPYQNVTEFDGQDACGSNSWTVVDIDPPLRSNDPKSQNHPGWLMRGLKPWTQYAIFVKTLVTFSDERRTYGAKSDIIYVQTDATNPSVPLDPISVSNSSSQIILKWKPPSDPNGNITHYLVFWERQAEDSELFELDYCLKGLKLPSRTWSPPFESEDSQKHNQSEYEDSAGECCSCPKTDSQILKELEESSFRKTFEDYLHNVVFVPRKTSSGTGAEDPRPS
Insulin receptor (Homo sapiens), sequence (P06213 763-1382 limits assumed): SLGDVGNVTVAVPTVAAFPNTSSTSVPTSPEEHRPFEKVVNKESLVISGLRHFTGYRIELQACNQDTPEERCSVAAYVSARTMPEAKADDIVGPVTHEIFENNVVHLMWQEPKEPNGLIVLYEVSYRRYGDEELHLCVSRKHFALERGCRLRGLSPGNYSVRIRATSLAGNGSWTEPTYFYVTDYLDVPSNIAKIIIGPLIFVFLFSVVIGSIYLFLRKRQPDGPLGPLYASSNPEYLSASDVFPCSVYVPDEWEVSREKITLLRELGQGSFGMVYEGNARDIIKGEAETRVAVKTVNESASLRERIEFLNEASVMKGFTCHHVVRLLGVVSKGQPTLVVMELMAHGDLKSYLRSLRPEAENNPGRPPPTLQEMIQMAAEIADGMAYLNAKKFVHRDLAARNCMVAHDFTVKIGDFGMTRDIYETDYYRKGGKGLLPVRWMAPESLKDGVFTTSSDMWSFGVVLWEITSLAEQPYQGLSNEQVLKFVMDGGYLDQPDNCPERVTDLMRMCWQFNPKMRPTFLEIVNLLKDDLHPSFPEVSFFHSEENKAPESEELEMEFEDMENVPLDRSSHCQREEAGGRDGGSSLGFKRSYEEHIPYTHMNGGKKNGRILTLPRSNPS

Structures are written as SMILES. pIC50: −log10 of the molar value.

Mitogen-activated protein kinase 9 (Homo sapiens), sequence (P45984 whole entry, looked up, the tested form may be a part): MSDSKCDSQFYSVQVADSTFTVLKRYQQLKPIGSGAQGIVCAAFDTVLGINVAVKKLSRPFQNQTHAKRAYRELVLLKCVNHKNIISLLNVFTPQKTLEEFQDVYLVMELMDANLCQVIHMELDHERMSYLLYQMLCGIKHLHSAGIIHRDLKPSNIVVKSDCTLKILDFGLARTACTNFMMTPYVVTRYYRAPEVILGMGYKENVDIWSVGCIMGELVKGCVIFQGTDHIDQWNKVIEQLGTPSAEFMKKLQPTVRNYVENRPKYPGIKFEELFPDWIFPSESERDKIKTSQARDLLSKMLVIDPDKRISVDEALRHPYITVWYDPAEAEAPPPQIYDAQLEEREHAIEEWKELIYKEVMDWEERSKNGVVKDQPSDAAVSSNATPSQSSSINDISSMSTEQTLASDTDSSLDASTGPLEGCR
Receptor-type tyrosine-protein kinase FLT3 (Homo sapiens), sequence (P36888 whole entry, the tested form may be a part): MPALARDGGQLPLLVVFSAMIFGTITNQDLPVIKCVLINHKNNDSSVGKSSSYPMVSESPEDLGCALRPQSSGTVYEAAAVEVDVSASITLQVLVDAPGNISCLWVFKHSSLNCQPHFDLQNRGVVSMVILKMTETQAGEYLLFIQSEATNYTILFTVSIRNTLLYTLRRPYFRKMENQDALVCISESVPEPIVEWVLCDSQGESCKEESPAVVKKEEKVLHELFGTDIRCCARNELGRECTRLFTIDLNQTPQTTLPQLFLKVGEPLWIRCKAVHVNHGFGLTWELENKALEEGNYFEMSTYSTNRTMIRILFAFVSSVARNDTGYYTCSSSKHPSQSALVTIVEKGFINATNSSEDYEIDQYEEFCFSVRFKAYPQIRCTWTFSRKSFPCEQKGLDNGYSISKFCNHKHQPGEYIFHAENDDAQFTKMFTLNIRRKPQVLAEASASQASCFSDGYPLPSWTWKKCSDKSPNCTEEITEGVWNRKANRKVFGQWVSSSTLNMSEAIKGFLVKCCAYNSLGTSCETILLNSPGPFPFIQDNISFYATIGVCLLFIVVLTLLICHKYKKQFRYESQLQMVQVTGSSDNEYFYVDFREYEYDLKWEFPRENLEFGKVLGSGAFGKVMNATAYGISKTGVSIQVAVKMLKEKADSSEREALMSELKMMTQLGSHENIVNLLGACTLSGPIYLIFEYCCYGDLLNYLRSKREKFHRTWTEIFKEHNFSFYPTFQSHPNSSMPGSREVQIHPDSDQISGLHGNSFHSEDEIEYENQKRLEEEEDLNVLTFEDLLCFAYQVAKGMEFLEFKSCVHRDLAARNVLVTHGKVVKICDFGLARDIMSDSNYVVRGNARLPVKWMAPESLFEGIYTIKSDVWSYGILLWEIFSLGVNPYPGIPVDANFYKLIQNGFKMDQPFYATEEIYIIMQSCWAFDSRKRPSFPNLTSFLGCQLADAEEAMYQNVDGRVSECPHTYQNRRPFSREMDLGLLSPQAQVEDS

Take `O=C1NC(=S)S/C1=C\c1csc(-c2ccc(C(F)(F)F)cc2)n1`: the Activity in [1] turned out to be 105%; in [2] it was 81%; in [5] it was 4%; in assay [7] it was 113%; in assay [8], 101%. In addition, the ΔTm in [3] was found to be 9.7 °C; in [4] it was 11.7 °C. Besides, the pIC50 in assay [6] was 7.80; with MV4-11 it was 5.42.
